Several values for one entry are separate records, joined by “and”; a condition that tells them apart may be missing. Equal values may be shown once. Entries after “also recorded” stand apart in the source; their conditions may differ. Read-outs that look alike come from different tables or passages of the source. Each block holds one compound with its values, some of them ahead of it.
Assays:
[1] = cited from earlier work
[2] = cited from earlier work; remark: listed apart in the source
[3] = pKa determination by pH-titration monitored by fluorescence spectroscopy; type: physicochemical
Source text: H-bonding pattern of N^2,N3-ε-A is dependent not only on tautomeric equilibria, but also on acid-base equilibria, namely, on protonation states. For analyzing the protonation state of N^2,N3-ε-A at physiological pH, we determined the pKa values of this system.
Specifically, we monitored the pH-titration of N^2,N3-E-A, 4, by fluorescence spectroscopy. 1×10^−5 M solutions of N^2,N3-ε-A-5′-mono-phosphate were titrated by HCl in the pH range of 1.5-7.0.

[4] = Absorption spectra (UV-Visible) in aqueous solution at several pH values; type: physicochemical; parameters: Absorption λmax: unit not given here
Protocol: Absorption spectra of compounds 4 and 23 were measured using a Varian array-1E UV-Visible spectrometer. Spectra were determined in dilute HCl or NaOH solutions in the pH range of 1.6-12.3 or at pH 7.0. The concentration of the samples of 4 in aqueous solutions and in organic solvents was of the order of 4.85×10^−5 M and of 23 in aqueous solutions was of the order of 5.04×10^−5 M.

[5] = Fluorescence life-time; type: physicochemical
Protocol: Fluorescent emission is a random process, and the excited molecules emit photons within a certain time, usually of the order of ns. For N^2,N3-ε-A, 4, and N^2,N3-ε-2′-deoxy-A, 23, fluorescence life times of 2.26 and 2.1 ns, respectively, were measured. These life times are relatively long and are therefore more convenient for the fluorescence measurements.

[6] = Emission (fluorescence) spectra and quantum yield, quinine sulfate as reference; type: physicochemical; parameters: Emission λmax: unit not given here; conditions: for Maximum emission (λmax) in water / Quantum yield (φ) in water: excitation at 290 nm (4), 330 nm (17); for φ290: 290 nm
Protocol: Emission spectra of compounds 4 and 23 were measured using an Aminco-Bowman series 2 Luminescence Spectrometer. Measurement conditions included: 740-750 V sensitivity, and a 4 or 2 nm slit in the emission spectra for aqueous or organic solutions, respectively. Emission spectra were corrected by the subtraction of the medium's emission spectrum. Spectra were determined in dilute HCl or NaOH solutions in the pH range of 1.6-12.3 or at pH 7. The concentration of the samples of 4 was of the order of 4.85×10^−5 M for aqueous and organic solutions and of 23 in the order of 5.04×10^−5 M for aqueous solutions. All organic solvents were freshly distilled prior to emission measurements. Measurements of the emission of the nucleoside analogue were conducted with subtraction of the solvent's emission. The quantum yield of each compound was calculated from the observed absorbance at 290 nm and the area of the fluorescence emission band. Quinine sulfate was used as reference compound assuming a quantum yield value of 0.55 (Andrew et al., 1988).

[7] = Stability under automated DNA synthesis conditions (TLC and MS); type: physicochemical
Protocol: In order for a compound to be used in automated DNA synthesis, it has to be able to withstand the conditions of the different reactions in the synthesis. For example, it has to be stable in the treatment with 28% ammonia for two hours at 60° C.

[8] = target: T1, rat brain P2Y1-receptor (Rattus norvegicus, UniProt P49651); test: Agonist-induced Ca2+ release in HEK 293 cells stably transfected with P2Y1-receptor; type: cell-based; conditions: HEK 293 cells with rat brain P2Y1-receptor
T1 construct: expressed in transfected cells
T1 sequence (P49651 whole entry): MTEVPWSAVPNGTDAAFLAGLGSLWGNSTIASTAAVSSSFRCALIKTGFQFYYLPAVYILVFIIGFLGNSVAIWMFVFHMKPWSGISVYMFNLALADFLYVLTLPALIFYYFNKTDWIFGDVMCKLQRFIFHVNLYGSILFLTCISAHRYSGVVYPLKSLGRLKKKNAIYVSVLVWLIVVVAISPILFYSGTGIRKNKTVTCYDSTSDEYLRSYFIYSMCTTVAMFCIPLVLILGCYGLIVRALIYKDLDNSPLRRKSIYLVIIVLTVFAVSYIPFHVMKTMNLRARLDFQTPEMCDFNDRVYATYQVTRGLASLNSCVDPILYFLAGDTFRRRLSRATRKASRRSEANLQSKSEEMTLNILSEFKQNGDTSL
Source text: To examine the efficacy of analogues 30a,d in a functional assay, we tested them by the agonist-induced Ca^2+ release in HEK 293 cells stably transfected with rat brain P2Y1-receptor (FIG. 6) (Voehringer et al., 2000). […] However, a benzyl substitution at N^6 of 30a, as in analogue 30d, reduced the ligand's potency. […] EC50 value in the range of 10^−6 M.

[9] = 1×10^−5 M solutions of the 5′-mono-phosphate titrated by HCl, pH 1.5-7.0, listed as N^2,N3-ε-A
[10] = in DMF (εd 37.6), 4.85 × 10^−5 M
[11] = in DMSO (εd 47.6), 4.85 × 10^−5 M
[12] = in Dioxane (εd 2.2), 4.85 × 10^−5 M

SMILES: OC[C@H]1O[C@@H](n2cnc3c2ncn2ccnc32)[C@H](O)[C@@H]1O [Compound 1, N1,N^6-etheno-adenosine]
Emission λmax ([1]; Secrist et al., 1972, Thomas and Leonard, 1976): 415 nm

SMILES: O=c1nc2[nH]ccn2c2c1ncn2[C@@H]1O[C@H](CO)[C@@H](O)[C@H]1O [Compound 3, N^2,N3-etheno-guanosine]
Maximum emission ([1]; excitation at 280 nm, Sattsangi et al., 1977): 410 nm
Emission maximum in water ([1]; in water, Kusmierek et al., 1987): 410 nm
pKa ([2]; literature (Glemarec et al., 1991 for the ε-G compounds)): 2.11
pKa of N7 ([2]; literature value as quoted): 5.20

SMILES: Nc1nc2nccn2c2c1ncn2C1OC(CO)C(O)C1O (centres unmarked) [Compound 4, N^2,N3-etheno-adenosine]
pKa (first; assigned to the exocyclic amine) [3, 9]: 1.92
pKa (second; attributed to N8) [3, 9]: 3.16
pKa (third; N7, most basic nitrogen) [3, 9]: 6.09
pKa (first; assigned to the exocyclic amine) ([3]; pH 1.5): 1.92±0.08
pKa (second; attributed to N8) ([3]; pH 1.5): 3.16±0.24
pKa (third; N7, most basic nitrogen) ([3]; pH 1.5): 6.09±0.16
Non-protonated fraction at physiological pH ([3]; pH 7.4): 96%
Absorption bands in water ([4]; in water): 234 nm and 274 nm
Absorption coefficient of the band at 234 nm ([4]; in water, 234 nm): 12.6×10^3
Absorption coefficient of the band at 274 nm ([4]; in water, 274 nm): 3.3×10^3
Absorption λmax ([4]; pH 1.6, 4.85 × 10^−5 M): 224 and 268
εd ([4]; pH 1.6, band at λmax 224): 6.17 × 10^3
εd ([4]; pH 1.6, band at λmax 268): 14.22 × 10^3
Absorption λmax ([4]; pH 7.0, 4.85 × 10^−5 M): 234 and 274
εd ([4]; pH 7.0, band at λmax 234): 12.58 × 10^3
εd ([4]; pH 7.0, band at λmax 274): 3.31 × 10^3
Absorption λmax ([4]; pH 12.3, 4.85 × 10^−5 M): 234 and 276
εd ([4]; pH 12.3, band at λmax 234): 13.89 × 10^3
εd ([4]; pH 12.3, band at λmax 276): 3.69 × 10^3
Fluorescence life time [5]: 2.26 ns
Fluorescence at acidic pH ([6]; acidic pH): significant fluorescence
Emission λmax [6, 10]: 448
φ (quantum yield) [6, 10]: 0.082
Emission λmax [6, 11]: 458
φ (quantum yield) [6, 11]: 0.085
Emission λmax [6, 12]: 434
φ (quantum yield) [6, 12]: 0.042
Maximum emission (λmax) in water [6]: 420 nm
Quantum yield (φ) in water [6]: 0.03
Emission λmax ([6]; pH 1.6, 4.85 × 10−5 M): 396
φ (quantum yield) ([6]; pH 1.6, 4.85 × 10−5 M): 0.021
Emission λmax ([6]; pH 7.0, 4.85 × 10−5 M): 420
φ (quantum yield) ([6]; pH 7.0, 4.85 × 10−5 M): 0.032
Emission λmax ([6]; pH 12.3, 4.85 × 10−5 M): 420
φ (quantum yield) ([6]; pH 12.3, 4.85 × 10−5 M): 0.031

SMILES: O=c1c2ncn(C3O[C@H](CO)[C@@H](O)[C@H]3O)c2[nH]c2nccn12 (some centres unmarked) [Compound 5]
Fluorescence ([1]; Sattsangi et al., 1977, Kusmierek et al., 1992): non-fluorescent

SMILES: CSc1nc2nccn2c2c1ncn2C1OC(CO)C(O)C1O (centres unmarked) [Compound 17, N^2,N3-etheno-6-methylthio-purine riboside]
Absorption bands in water ([4]; in water): 227 nm and 247 nm and 307 nm and 345 nm
Absorption λmax ([4]; pH 1.6, 5.04 × 10^−5 M): 227 and 243 and 301 and 331
εd ([4]; pH 1.6, band at λmax 227): 16.52 × 10^3
εd ([4]; pH 1.6, band at λmax 243): 13.57 × 10^3
εd ([4]; pH 1.6, band at λmax 301): 7.39 × 10^3
εd ([4]; pH 1.6, band at λmax 331): 7.13 × 10^3
Absorption λmax ([4]; pH 7.0, 5.04 × 10^−5 M): 231 and 247 and 307 and 345
εd ([4]; pH 7.0, band at λmax 231): 16.09 × 10^3
εd ([4]; pH 7.0, band at λmax 247): 13.25 × 10^3
εd ([4]; pH 7.0, band at λmax 307): 7.07 × 10^3
εd ([4]; pH 7.0, band at λmax 345): 2.90 × 10^3
Absorption λmax ([4]; pH 12.3, 5.04 × 10^−5 M): 233 and 307
εd ([4]; pH 12.3, band at λmax 233): 19.29 × 10^3
εd ([4]; pH 12.3, band at λmax 307): 5.95 × 10^3
Maximum emission (λmax) in water [6]: 520 nm and 518 nm
Quantum yield (φ) in water [6]: 0.15
Emission λmax ([6]; pH 1.6, 5.04 × 10^−5 M): 492 and 516
φ (quantum yield) ([6]; pH 1.6, 5.04 × 10^−5 M): 0.037
Emission λmax ([6]; pH 7.0, 5.04 × 10^−5 M): 494 and 518
φ (quantum yield) ([6]; pH 7.0, 5.04 × 10^−5 M): 0.152
Emission λmax ([6]; pH 12.3, 5.04 × 10^−5 M): 494 and 520
φ (quantum yield) ([6]; pH 12.3, 5.04 × 10^−5 M): 0.067

More lines, main results first:

ε (238 nm) ([4]; pH 7.0): 4.67×10^3
ε (308 nm) ([4]; pH 7.0): 1.23×10^3
Stability against 2% dichloroacetic acid ([7]; 2% dichloroacetic acid, 2 min): stable
Stability in 28% ammonia ([7]; 28% ammonia, two hours at 60° C.): stable
Fluorescence life time [5]: 2.1 ns
φ290 ([6]; pH 7.0): 0.085
SMILES: Nc1nc2nccn2c2c1ncn2C1CC(O)C(CO)O1 (centres unmarked) [Compound 23]

ε (238 nm) ([4]; pH 7.0): 4.12×10^3
ε (308 nm) ([4]; pH 7.0): 1.02×10^3
φ290 ([6]; pH 7.0): 0.07
SMILES: Nc1c2ncn(C3CC(O)C(CO)O3)c2nc2nccn12 (centres unmarked) [Compound 25, N1,N^2-etheno-2′-deoxy-adenosine]

EC50 ([8]; Ca^2+ release): ~1000 nM
SMILES: O=P(O)(O)OP(=O)(O)OP(=O)(O)OCC1OC(n2cnc3c(NCc4ccccc4)nc4nccn4c32)C(O)C1O (centres unmarked) [Compound 30d, N^6-Benzyl-N^2,N3-ethenoadenosine-5′-triphosphate]
Potency at P2Y1-R compared to ATP / 30a [8]: reduction by one order of magnitude; also recorded: significant reduction of the affinities

From patent US7385051B2, “Fluorescent N2,N3-etheno-purine (2′-deoxy) riboside derivatives and uses thereof” (Bar-llan University, priority 2005, dated 2008)
